Ten molecules from patent US7446199B2, “Compositions useful as inhibitors of protein kinases” (Vertex Pharmaceuticals Incorporated, priority 2003, dated 2008) can be followed below.

Broadly, the Ki is a dissociation constant, usually derived from enzyme kinetics or from competition with a known ligand.

One assay deals with T1, FLT-3 (Homo sapiens, UniProt P36888).
T1 construct: 0.02% BSA and 3 nM FLT-3
T1 sequence (P36888 27-993): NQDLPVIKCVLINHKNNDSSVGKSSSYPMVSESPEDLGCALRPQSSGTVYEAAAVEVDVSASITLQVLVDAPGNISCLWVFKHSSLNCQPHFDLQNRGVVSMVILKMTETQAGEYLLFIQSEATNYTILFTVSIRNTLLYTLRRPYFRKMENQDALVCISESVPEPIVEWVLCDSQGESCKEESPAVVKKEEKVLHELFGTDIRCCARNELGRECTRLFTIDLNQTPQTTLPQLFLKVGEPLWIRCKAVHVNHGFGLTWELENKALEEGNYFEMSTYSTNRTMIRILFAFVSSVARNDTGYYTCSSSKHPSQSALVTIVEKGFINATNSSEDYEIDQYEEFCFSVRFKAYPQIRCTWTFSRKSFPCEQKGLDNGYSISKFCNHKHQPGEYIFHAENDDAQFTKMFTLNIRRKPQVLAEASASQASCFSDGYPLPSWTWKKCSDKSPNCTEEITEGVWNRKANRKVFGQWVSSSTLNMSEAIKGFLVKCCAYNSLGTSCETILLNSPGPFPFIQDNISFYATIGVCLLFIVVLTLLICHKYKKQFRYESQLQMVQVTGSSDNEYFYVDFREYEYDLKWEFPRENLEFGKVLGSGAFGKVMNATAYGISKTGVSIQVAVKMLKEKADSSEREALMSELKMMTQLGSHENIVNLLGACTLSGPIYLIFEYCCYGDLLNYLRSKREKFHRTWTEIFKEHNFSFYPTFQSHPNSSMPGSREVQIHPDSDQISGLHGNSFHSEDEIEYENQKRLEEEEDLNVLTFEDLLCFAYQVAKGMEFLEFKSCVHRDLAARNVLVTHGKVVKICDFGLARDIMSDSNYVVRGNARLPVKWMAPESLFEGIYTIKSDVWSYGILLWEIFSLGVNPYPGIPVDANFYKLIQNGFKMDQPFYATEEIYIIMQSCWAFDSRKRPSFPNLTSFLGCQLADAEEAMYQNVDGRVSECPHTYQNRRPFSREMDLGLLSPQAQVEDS
As to the kind of experiment: Inhibition of FLT-3, radiometric filter-binding assay. The class given is biochemical. Conditions: 90 μM ATP, 0.5 mg/mL pE4Y, room temperature. Summed up: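 Radiometric filter-binding assay of FLT-3 (3 nM in Solution 2; final conc not stated) phosphorylating poly(Glu,Tyr) 4:1 (0.5 mg/mL) with 90 μM ATP plus [γ-33P]ATP, in HEPES pH 7.5, MgCl2, NaCl, DTT, BSA, 2.5% DMSO. 12-point titration, typically 0.01–5 μM, 20 min at room temperature; TCA-stopped, filtered, scintillation-counted; IC50 or Ki fitted.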

The target in another assay is c-Met (Homo sapiens, UniProt P08581). As to the kind of experiment: Ki determination for the inhibition of c-Met, coupled enzyme system. The class given is biochemical. Conditions: 200 μM ATP, 10 μM polyGluTyr, 80 nM c-Met, 30° C. Summed up:
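Coupled pyruvate kinase/lactate dehydrogenase NADH assay with 80 nM c-Met, 200 μM ATP, 10 μM polyGluTyr in pH 7.5 HEPES, 1.5% DMSO at 30° C. Compound (0.006–12.5 μM final, 12-point) preincubated 10 min; ATP started reaction, rates read over 10 min; Ki derived from rate versus inhibitor concentration.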

c-Met, sequence (P08581 25-1390): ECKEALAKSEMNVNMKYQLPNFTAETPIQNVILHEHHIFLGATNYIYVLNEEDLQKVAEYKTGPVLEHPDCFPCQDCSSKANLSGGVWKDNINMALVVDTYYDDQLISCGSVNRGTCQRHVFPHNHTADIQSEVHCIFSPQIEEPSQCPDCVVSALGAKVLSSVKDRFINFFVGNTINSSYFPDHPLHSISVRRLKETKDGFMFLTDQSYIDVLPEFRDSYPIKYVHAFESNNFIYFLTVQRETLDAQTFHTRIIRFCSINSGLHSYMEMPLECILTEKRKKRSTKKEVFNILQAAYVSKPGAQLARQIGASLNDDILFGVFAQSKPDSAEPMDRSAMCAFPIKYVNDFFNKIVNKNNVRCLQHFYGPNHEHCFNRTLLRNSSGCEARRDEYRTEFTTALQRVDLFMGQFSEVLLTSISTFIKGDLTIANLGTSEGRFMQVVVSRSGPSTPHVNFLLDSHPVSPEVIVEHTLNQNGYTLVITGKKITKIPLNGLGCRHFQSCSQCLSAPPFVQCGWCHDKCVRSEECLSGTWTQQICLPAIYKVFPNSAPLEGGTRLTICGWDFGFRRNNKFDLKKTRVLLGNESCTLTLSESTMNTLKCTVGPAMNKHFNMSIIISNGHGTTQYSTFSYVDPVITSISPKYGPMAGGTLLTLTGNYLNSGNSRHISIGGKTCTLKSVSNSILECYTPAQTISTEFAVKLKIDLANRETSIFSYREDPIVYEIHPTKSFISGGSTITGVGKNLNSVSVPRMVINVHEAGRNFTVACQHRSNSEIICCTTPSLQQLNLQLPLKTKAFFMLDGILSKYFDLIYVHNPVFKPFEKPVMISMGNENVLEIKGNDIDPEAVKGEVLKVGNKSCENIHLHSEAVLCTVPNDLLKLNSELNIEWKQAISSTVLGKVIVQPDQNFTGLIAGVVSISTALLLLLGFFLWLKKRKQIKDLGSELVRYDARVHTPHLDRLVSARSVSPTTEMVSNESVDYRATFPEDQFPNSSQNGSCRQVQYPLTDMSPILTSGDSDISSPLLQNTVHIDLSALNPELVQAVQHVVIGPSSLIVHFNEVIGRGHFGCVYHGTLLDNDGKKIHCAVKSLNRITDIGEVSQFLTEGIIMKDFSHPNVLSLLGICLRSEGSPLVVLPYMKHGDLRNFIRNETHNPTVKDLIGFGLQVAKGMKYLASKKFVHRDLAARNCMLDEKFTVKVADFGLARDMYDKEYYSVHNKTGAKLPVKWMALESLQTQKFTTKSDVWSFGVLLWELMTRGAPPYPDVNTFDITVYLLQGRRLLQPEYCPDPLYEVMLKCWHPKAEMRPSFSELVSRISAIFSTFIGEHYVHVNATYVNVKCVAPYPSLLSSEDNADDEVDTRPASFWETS

For the molecule `Fc1ccc(-c2cnc3[nH]cc(-c4oncc4-c4cccc(F)c4F)c3c2)cn1` [Compound 69, 3-[4-(2,3-Difluoro-phenyl)-isoxazol-5-yl]-5-(6-fluoro-pyridin-3-yl)-1H-pyrrolo[2,3-b]pyridine], the Ki at FLT-3 is 200 to 1000 nM; on c-Met, less than 200 nM.

On to `Fc1cccc(-c2cnoc2-c2c[nH]c3ncc(-c4cccnc4)cc23)c1F` [Compound 59, 3-[4-(2,3-Difluoro-phenyl)-isoxazol-5-yl]-5-pyridin-3-yl-1H-pyrrolo[2,3-b]pyridine], for which the inhibition constant (Ki) at FLT-3 and on c-Met was less than 200 nM each time.

Regarding `NC1CC=C(c2cnc3[nH]cc(-c4oncc4-c4cccc(F)c4F)c3c2)CC1` (centres unmarked) [Compound 137, 4-{3-[4-(2,3-Difluoro-phenyl)-isoxazol-5-yl]-1H-pyrrolo [2,3-b]pyridin-5-yl}-cyclohex-3-enylamine], the Ki on FLT-3 and at c-Met was less than 200 nM throughout.

Take `CN(C)c1ccnc(-c2cnc3[nH]cc(-c4oncc4-c4cccc(F)c4F)c3c2)c1` [Compound 80, (2-{3-[4-(2,3-Difluoro-phenyl)-isoxazol-5-yl]-1H-pyrrolo[2,3-b]pyridin-5-yl}-pyridin-4-yl)-dimethyl-amine]: the Ki on FLT-3 and at c-Met was 1000 to 12500 nM each time.

For the molecule `CC(=O)Nc1cccc(-c2cnc3[nH]cc(-c4oncc4-c4cccc(F)c4F)c3c2)c1` [Compound 65, N-(3-{3-[4-(2,3-Difluoro-phenyl)-isoxazol-5-yl]-1H-pyrrolo[2,3-b]pyridin-5-yl}-phenyl)-acetamide], the Ki at FLT-3 and on c-Met was less than 200 nM throughout.

For `CS(=O)(=O)Nc1ccc(-c2cnc3[nH]cc(-c4oncc4-c4cccc(F)c4F)c3c2)cc1` [Compound 98, N-(4-{3-[4-(2,3-Difluoro-phenyl)-isoxazol-5-yl]-1H-pyrrolo[2,3-b]pyridin-5-yl}-phenyl)-methane sulfonamide], the Ki on FLT-3 and on c-Met was less than 200 nM each time.

Consider `Fc1cccc(-c2cnoc2-c2c[nH]c3ncc(-c4cnc5[nH]ccc5c4)cc23)c1F` [Compound 77, 3-[4-(2,3-Difluoro-phenyl)-isoxazol-5-yl]-1H,1′H-[5,5′]bi[pyrrolo[2,3-b]pyridinyl]], for which the Ki on FLT-3 and on c-Met was less than 200 nM in each case.

In the case of `CN(C)CCNc1ccc(-c2cnc3[nH]cc(-c4nncn4-c4cccc(F)c4F)c3c2)cn1` [Compound 119, N′-(5-{3-[4-(2,3-Difluoro-phenyl)-4H-[1,2,4]triazol-3-yl]-1H-pyrrolo[2,3-b]pyridin-5-yl}-pyridin-2-yl)-N,N-dimethyl-ethane-1,2-diamine], the Ki on FLT-3 was 200 to 1000 nM; at c-Met, less than 200 nM.

`Fc1cccc(-c2cnoc2-c2c[nH]c3ncccc23)c1F` [Compound 1, 3-[4-(2,3-Difluoro-phenyl)-isoxazol-5-yl]-1H-pyrrolo[2,3-b]pyridine]: the Ki on FLT-3 is 200 to 1000 nM; on c-Met it was less than 200 nM.

As for `Fc1cccc(-c2cnoc2-c2c[nH]c3ncc(C4=CCC(N5CCOCC5)CC4)cc23)c1F` (centres unmarked) [Compound 139, 3-[4-(2,3-Difluoro-phenyl)-isoxazol-5-yl]-5-(4-morpholin-4-yl-cyclohex-1-enyl)-1H-pyrrolo[2,3-b]pyridine], the Ki at FLT-3 and on c-Met was less than 200 nM in each case.
